Measurements: ChEMBL document CHEMBL1151118, “Plant antimutagenic agents, 2. Flavonoids” (J Nat Prod, 1988)

Columns and labels:
Salmonella typhimurium [1] = test: Antimutagenic activity in Salmonella Typhimurium […] assessed as inhibition of 2-aminoanthracene-induced mutation at 600 ug/plate after 72 hrs in presence of Ames S-9 fraction; assay type: functional, Salmonella enterica subsp. enterica serovar Typhimurium
Salmonella typhimurium [2] = test: Antimutagenic activity in Salmonella Typhimurium […] assessed as inhibition of 2-aminoanthracene-induced mutation at 300 ug/plate after 72 hrs in presence of Ames S-9 fraction; assay type: functional, Salmonella enterica subsp. enterica serovar Typhimurium
Salmonella typhimurium [3] = test: Antimutagenic activity in Salmonella Typhimurium […] assessed as inhibition of 2-aminoanthracene-induced mutation at 150 ug/plate after 72 hrs in presence of Ames S-9 fraction; assay type: functional, Salmonella enterica subsp. enterica serovar Typhimurium
Salmonella typhimurium [4] = test: Antimutagenic activity in Salmonella Typhimurium […] assessed as inhibition of acetylaminofluorene-induced mutation at 600 ug/plate after 72 hrs in presence of Ames S-9 fraction; assay type: functional, Salmonella enterica subsp. enterica serovar Typhimurium
Salmonella typhimurium [5] = test: Antimutagenic activity in Salmonella Typhimurium […] assessed as inhibition of acetylaminofluorene-induced mutation at 300 ug/plate after 72 hrs in presence of Ames S-9 fraction; assay type: functional, Salmonella enterica subsp. enterica serovar Typhimurium
Salmonella typhimurium [6] = test: Antimutagenic activity in Salmonella Typhimurium […] assessed as inhibition of acetylaminofluorene-induced mutation at 150 ug/plate after 72 hrs in presence of Ames S-9 fraction; assay type: functional, Salmonella enterica subsp. enterica serovar Typhimurium
Salmonella typhimurium [7] = test: Antimutagenic activity in Salmonella Typhimurium […] assessed as inhibition of benzo[a]pyrene-induced mutation at 600 ug/plate after 72 hrs in presence of Ames S-9 fraction; assay type: functional, Salmonella enterica subsp. enterica serovar Typhimurium
Salmonella typhimurium [8] = test: Antimutagenic activity in Salmonella Typhimurium […] assessed as inhibition of benzo[a]pyrene-induced mutation at 300 ug/plate after 72 hrs in presence of Ames S-9 fraction; assay type: functional, Salmonella enterica subsp. enterica serovar Typhimurium
Salmonella typhimurium [9] = test: Antimutagenic activity in Salmonella Typhimurium […] assessed as inhibition of benzo[a]pyrene-induced mutation at 150 ug/plate after 72 hrs in presence of Ames S-9 fraction; assay type: functional, Salmonella enterica subsp. enterica serovar Typhimurium
Salmonella typhimurium [10] = test: Antimutagenic activity in Salmonella Typhimurium […] assessed as inhibition of 2-nitroflorene-induced mutation at 600 ug/plate after 72 hrs; assay type: functional, Salmonella enterica subsp. enterica serovar Typhimurium
Salmonella typhimurium [11] = test: Antimutagenic activity in Salmonella Typhimurium […] assessed as inhibition of 2-nitroflorene-induced mutation at 300 ug/plate after 72 hrs; assay type: functional, Salmonella enterica subsp. enterica serovar Typhimurium
Salmonella typhimurium [12] = test: Antimutagenic activity in Salmonella Typhimurium […] assessed as inhibition of 2-nitroflorene-induced mutation at 150 ug/plate after 72 hrs; assay type: functional, Salmonella enterica subsp. enterica serovar Typhimurium
[13] = Toxicity in Salmonella Typhimurium […] at 600 ug/plate after 72 hrs by Ames assay in presence of Ames S-9 fraction; assay type: organism-based; conditions: salmonella enterica subsp. enterica serovar typhimurium, Salmonella Typhimurium T98 with S-9 fraction
[14] = Toxicity in Salmonella Typhimurium […] at 300 ug/plate after 72 hrs by Ames assay in presence of Ames S-9 fraction; assay type: organism-based; conditions: salmonella enterica subsp. enterica serovar typhimurium, Salmonella Typhimurium T98 with S-9 fraction
[15] = Toxicity in Salmonella Typhimurium […] at 150 ug/plate after 72 hrs by Ames assay in presence of Ames S-9 fraction; assay type: organism-based; conditions: salmonella enterica subsp. enterica serovar typhimurium, Salmonella Typhimurium T98 with S-9 fraction

Row | SMILES | inhibition (INH) (Salmonella typhimurium [1]) | inhibition (INH) (Salmonella typhimurium [2]) | inhibition (INH) (Salmonella typhimurium [3]) | inhibition (INH) (Salmonella typhimurium [4]) | inhibition (INH) (Salmonella typhimurium [5]) | inhibition (INH) (Salmonella typhimurium [6]) | inhibition (INH) (Salmonella typhimurium [7]) | inhibition (INH) (Salmonella typhimurium [8]) | inhibition (INH) (Salmonella typhimurium [9]) | inhibition (INH) (Salmonella typhimurium [10]) | inhibition (INH) (Salmonella typhimurium [11]) | inhibition (INH) (Salmonella typhimurium [12]) | inhibition at 72 h, 600 ug/plate [13] | inhibition at 72 h, 300 ug/plate [14] | inhibition at 72 h, 150 ug/plate [15]
1 | O=c1cc(-c2ccc(O)cc2)oc2cc(O)cc(O)c12 [APIGENIN] | 10% | 0% | 0% | 0% | 14% | 0% | 75% | 64% | 67% | 88% | 70% | 60% | – | – | –
2 | C=C[C@@](C)(/C=C/c1ccc(O)cc1)CCC=C(C)C [BAKUCHIOL] | 81% | 84% | 91% | 0% | 0% | 0% | 43% | 28% | 0% | 92% | 79% | 75% | < 30% | < 20% | < 20%
3 | CC(C)=CCc1cc2c(cc1O)O[C@H](c1ccc(O)cc1)CC2=O [BAVACHIN] | 62% | 98% | 98% | – | 0% | 0% | – | 0% | 0% | – | 72% | 52% | – | 50% | < 20%
4 | COc1ccc(-c2coc3cc(O)cc(O)c3c2=O)cc1 [BIOCHANIN] | 57% | – | – | – | – | – | – | – | – | – | – | – | < 20% | < 20% | –
5 | COc1ccc(-c2coc3cc(O)ccc3c2=O)cc1 [FORMONONETIN] | 0% | – | – | – | – | – | – | – | – | – | – | – | – | – | –
6 | O=c1c(O)c(-c2ccccc2)oc2cc(O)cc(O)c12 [GALANGIN] | 97% | – | – | – | – | – | – | – | – | – | – | – | – | – | –
7 | COc1ccc([C@@H]2CC(=O)c3c(O)cc(O[C@@H]4O[C@H](CO[C@@H]5O[C@@H](C)[C@H](O)[C@@H](O)[C@H]5O)[C@@H](O)[C@H](O)[C@H]4O)cc3O2)cc1O [HESPERIDIN] | 13% | – | – | – | – | – | – | – | – | – | – | – | < 20% | < 20% | –
8 | CC(C)=CCc1c(O)ccc(C(=O)/C=C/c2ccc(O)cc2)c1O [ISOBAVACHALCONE] | 86% | – | – | – | – | – | – | – | – | – | – | – | > 90% | > 90% | –
9 | O=c1c(O)c(-c2ccc(O)cc2O)oc2cc(O)cc(O)c12 [MORIN] | 0% | – | – | – | – | – | – | – | – | – | – | – | < 30% | < 20% | –
10 | C[C@@H]1O[C@@H](O[C@H]2[C@H](Oc3cc(O)c4c(c3)O[C@H](c3ccc(O)cc3)CC4=O)O[C@H](CO)[C@@H](O)[C@@H]2O)[C@H](O)[C@H](O)[C@H]1O [NARINGIN] | 38% | – | – | – | – | – | – | – | – | – | – | – | 50% | < 30% | –
11 | CC(C)=CCc1cc(-c2coc3cc(O)ccc3c2=O)ccc1O [NEOBAVAISOFLAVONE] | 97% | 67% | 98% | 96% | 72% | 2% | 97% | 74% | 17% | 66% | 53% | 15% | > 90% | > 90% | –
12 | COc1ccc(-c2cc(=O)c3c(OC)c(OC)c(OC)c(OC)c3o2)cc1OC [NOBILETIN] | 43% | – | – | – | – | – | – | – | – | – | – | – | < 20% | < 20% | –
13 | O=c1c(O)c(-c2ccc(O)c(O)c2)oc2cc(O)cc(O)c12 [QUERCETIN] | 20% | 24% | 16% | 0% | 0% | 0% | 0% | 0% | 0% | 0% | 0% | 0% | 50% | 50% | –
14 | COc1cc(O)c2c(=O)c(O)c(-c3ccc(O)c(O)c3)oc2c1 [RHAMNETIN] | 78% | 0% | 0% | – | 52% | 11% | – | 45% | 7% | – | 41% | 34% | – | – | –
15 | C[C@@H]1O[C@@H](OC[C@H]2O[C@@H](Oc3c(-c4ccc(O)c(O)c4)oc4cc(O)cc(O)c4c3=O)[C@H](O)[C@@H](O)[C@@H]2O)[C@H](O)[C@H](O)[C@H]1O [RUTIN] | 0% | – | – | – | – | – | – | – | – | – | – | – | < 20% | < 20% | –
16 | COc1ccc(-c2cc(=O)c3c(OC)c(OC)c(OC)c(OC)c3o2)cc1 [TANGERETIN] | 42% | – | – | – | – | – | – | – | – | – | – | – | 50% | < 20% | –
